Assay results: patent publication US4205163A, “Tylosin derivatives” (Sanraku-Ocean Co., Ltd., priority 1977, dated 1980)
Values after ≈ are worked out from the molar mass of the structure shown. Like-named read-outs stand apart in the source and are kept apart here.

Assays:
[1] = system: Mycoplasma gallisepticum E-5; assay: antibacterial activity against Mycoplasma; format: cell-based; details: Mycoplasmoides gallisepticum, E5
Excerpt: (§1) Furthermore the new antibiotics according to the present invention also show antimicrobial activity on Mycoplasma. In particular, it is noteworthy that they have much higher antimicrobial activity than tylosin on Mycoplasma that is resistant to macrolide antibiotics. Tab.
(§2) *Macrolide resistant strain
(§3) **Medium (Eiken PPLO Medium)

[2] = system: Mycoplasma gallisepticum A-72; assay: antibacterial activity against Mycoplasma; format: cell-based; details: Mycoplasmoides gallisepticum, A72; strain A-72, macrolide resistant; Eiken PPLO Medium
Excerpt: as §1, §2, §3

[3] = system: Mycoplasma gallisepticum E-11; assay: antibacterial activity against Mycoplasma; format: cell-based; details: Mycoplasmoides gallisepticum, E11
Excerpt: as §1, §2, §3

[4] = system: Mycoplasma gallisepticum KP-13; assay: antibacterial activity against Mycoplasma; format: cell-based; details: Mycoplasmoides gallisepticum, KP13
Excerpt: as §1, §3

[5] = toxicity in chickens, mixed with feed for a month; format: in vivo; details: mixed with feed at 0.3%
Excerpt: 3-Acetyl-4"-D-(α-hydroxyphenylacetyl)tylosin, 4"-phenylthioacetyltylosin and 4"-benzenesulfonylacetyltylosin, selected as the representative compounds according to the present invention, were mixed with feed at a ratio of 0.3%, respectively and given to chickens for a month.

in vivo = details: mouse, po, 100 mg/kg
Experimental: The new antibiotics according to the present invention were each orally administered to mice at a dose of 100 mg/kg. Each blood level was then measured and compared with those of tylosin and 3-acetyltylosin.

[6] = system: Staphylococcus aureus MS-9931; assay: antimicrobial activity, broth dilution method; format: cell-based
Outline: (§4)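 The S. aureus and S. pyogenes strains are multidrug-resistant clinical isolates, and both are tylosin-resistant. Susceptibility was determined by the broth dilution technique.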

[7] = system: Streptococcus pyogenes MH-771; assay: antimicrobial activity, broth dilution method; format: cell-based; details: Streptococcus pyogenes
Outline: as §4

[8] = system: Staphylococcus aureus MS-9937; assay: antimicrobial activity, broth dilution method; format: cell-based
Outline: as §4

[9] = system: Staphylococcus aureus MS-8710; assay: antimicrobial activity, broth dilution method; format: cell-based; details: Staphylococcus aureus
Outline: as §4

[10] = system: Staphylococcus aureus FDA-209P; assay: antimicrobial activity, broth dilution method; format: cell-based; details: Staphylococcus aureus, FDA209P, read-out: minimum inhibitory concentration (MIC)
Outline: (§5)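 Activity was measured by broth dilution against each strain. S. aureus MS-8710 is a clinical isolate resistant to tylosin, penicillin, tetracycline, erythromycin and leucomycin. The S. pyogenes strain is a clinical isolate resistant to tylosin, erythromycin, oleandomycin and leucomycin.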

[11] = system: Bacillus cereus ATCC 9634; assay: antimicrobial activity, broth dilution method; format: cell-based; details: Bacillus cereus
Outline: as §4

[12] = system: Staphylococcus aureus SMITH; assay: antimicrobial activity, broth dilution method; format: cell-based; details: Staphylococcus aureus, read-out: minimum inhibitory concentration (MIC)
Outline: as §5

Sarcina lutea ATCC 9341 = assay: antimicrobial activity, broth dilution method; format: cell-based; details: Micrococcus luteus, ATCC9341, Sarcina lutea ATCC 9341, read-out: minimum inhibitory concentration (MIC)
Outline: as §4

[13] = strain E-5, macrolide resistant, Eiken PPLO Medium, read-out: MIC
[14] = strain E-11, macrolide resistant, Eiken PPLO Medium, read-out: MIC
[15] = strain KP-13, Eiken PPLO Medium, read-out: MIC
[16] = MS9931, Staphylococcus aureus MS-9931, drug-resistant clinical isolate, read-out: minimum inhibitory concentration (MIC)
[17] = MH771, Streptococcus pyogenes MH-771, drug-resistant clinical isolate, read-out: minimum inhibitory concentration (MIC)
[18] = MS9937, Staphylococcus aureus MS-9937, drug-resistant clinical isolate, read-out: minimum inhibitory concentration (MIC)
[19] = MS8710, Staphylococcus aureus MS-8710, drug-resistant clinical isolate, read-out: minimum inhibitory concentration (MIC)
[20] = Staphylococcus aureus FDA-209P, broth dilution
[21] = ATCC9634, Bacillus cereus ATCC 9634, broth dilution, read-out: minimum inhibitory concentration (MIC)
[22] = Staphylococcus aureus SMITH, broth dilution

SMILES	MIC [1, 13] [µg/mL]	MIC [2] [µg/mL]	MIC [3, 14] [µg/mL]	MIC [4, 15] [µg/mL]	toxicity [5]	MIC [6, 16] [µg/mL]	MIC [7, 17] [µg/mL]	MIC [8, 18] [µg/mL]	MIC [9, 19] [µg/mL]	MIC [10, 20] [µg/mL]	MIC [11, 21] [µg/mL]	MIC [12, 22] [µg/mL]	MIC (Sarcina lutea ATCC 9341) [µg/mL]	also measured
CCC1OC(=O)CC(OC(C)=O)C(C)C(OC2OC(C)C(OC3CC(C)(O)C(OC(=O)C(O)c4ccccc4)C(C)O3)C(N(C)C)C2O)C(CC=O)CC(C)C(=O)C=CC(C)=CC1COC1OC(C)C(O)C(OC)C1OC [Compound 17, 3-acetyl-4"-D-(α-hydroxyphenylacetyl)tylosin]	0.625 (≈ 0.572 µM)	0.313 (≈ 0.287 µM)	0.625 (≈ 0.572 µM)	0.157 (≈ 0.144 µM)	No toxicity was observed	12.5 (≈ 11.4 µM)	6.25 (≈ 5.72 µM)	12.5 (≈ 11.4 µM)						concentration at 1 h (in vivo): 10000 ng/mL; concentration at 3 h (in vivo): 2000 ng/mL
CCC1OC(=O)CC(O)C(C)C(OC2OC(C)C(OC3CC(C)(O)C(OC(=O)CSc4ccccc4)C(C)O3)C(N(C)C)C2O)C(CC=O)CC(C)C(=O)C=CC(C)=CC1COC1OC(C)C(O)C(OC)C1OC (stereo not shown) [Compound 34, 4"-phenylthioacetyltylosin]	0.078 (≈ 0.0731 µM)	0.078 (≈ 0.0731 µM)	0.078 (≈ 0.0731 µM)	0.019 (≈ 0.0178 µM)	No toxicity was observed	12.5 (≈ 11.7 µM)	6.25 (≈ 5.86 µM)	12.5 (≈ 11.7 µM)	6.25 (≈ 5.86 µM)	0.39 (≈ 0.366 µM)	0.39 (≈ 0.366 µM)	0.39 (≈ 0.366 µM)	0.19 (≈ 0.178 µM)	
CCC1OC(=O)CC(O)C(C)C(OC2OC(C)C(OC3CC(C)(O)C(OC(=O)CS(=O)(=O)c4ccccc4)C(C)O3)C(N(C)C)C2O)C(CC=O)CC(C)C(=O)C=CC(C)=CC1COC1OC(C)C(O)C(OC)C1OC (stereo not shown) [Compound 43, 4"-benzenesulfonylacetyltylosin]	0.078 (≈ 0.071 µM)	0.039 (≈ 0.0355 µM)	0.078 (≈ 0.071 µM)	0.019 (≈ 0.0173 µM)	No toxicity was observed	6.25 (≈ 5.69 µM)	3.13 (≈ 2.85 µM)	6.25 (≈ 5.69 µM)	6.25 (≈ 5.69 µM)	0.78 (≈ 0.71 µM)	0.78 (≈ 0.71 µM)	0.78 (≈ 0.71 µM)	0.39 (≈ 0.355 µM)	
CC[C@H]1OC(=O)C[C@@H](O)[C@H](C)[C@@H](O[C@@H]2O[C@H](C)[C@@H](O[C@H]3C[C@@](C)(O)[C@@H](O)[C@H](C)O3)[C@H](N(C)C)[C@H]2O)[C@@H](CC=O)C[C@@H](C)C(=O)/C=C/C(C)=C/[C@@H]1CO[C@@H]1O[C@H](C)[C@@H](O)[C@@H](OC)[C@H]1OC [tylosin]		2.5 (≈ 2.73 µM)											0.19 (≈ 0.207 µM)	MIC [1]: 2.5 µg/mL (≈ 2.73 µM); MIC [3]: 2.5 µg/mL (≈ 2.73 µM); MIC [4]: 0.019 µg/mL (≈ 0.0207 µM); Cmax (in vivo): ≤ 1000 ng/mL; MIC ([6]; Staphylococcus aureus, MS9931, read-out: minimum inhibitory concentration (MIC)): 200 µg/mL (≈ 218 µM); MIC ([9]; MS8710, read-out: minimum inhibitory concentration (MIC)): > 200 µg/mL; MIC [10]: 0.39 µg/mL (≈ 0.426 µM); MIC ([11]; ATCC9634, read-out: minimum inhibitory concentration (MIC)): 0.78 µg/mL (≈ 0.851 µM); MIC [12]: 0.39 µg/mL (≈ 0.426 µM); MIC ([7]; MH771, read-out: minimum inhibitory concentration (MIC)): > 200 µg/mL; MIC ([8]; Staphylococcus aureus, MS9937, read-out: minimum inhibitory concentration (MIC)): 100 µg/mL (≈ 109 µM)
